This note sets out measurements from ChEMBL document CHEMBL4393651, “Class 1 PI3K Clinical Candidates and Recent Inhibitor Design Strategies: A Medicinal Chemistry Perspective” (J Med Chem, 2019).

In data set [1] the target is T1, Phosphatidylinositol 4,5-bisphosphate 3-kinase catalytic subunit beta isoform (Homo sapiens, UniProt P42338). Kind of data set: Inhibition of N-terminal His-tagged truncated human PI3Kbeta (deltaN 1 to 108 residues) after 2 hrs in presence of [33P]ATP by BetaPlate liquid scintillation counting analysis.
T1 sequence (P42338 whole entry, the tested form may be a part, canonical isoform): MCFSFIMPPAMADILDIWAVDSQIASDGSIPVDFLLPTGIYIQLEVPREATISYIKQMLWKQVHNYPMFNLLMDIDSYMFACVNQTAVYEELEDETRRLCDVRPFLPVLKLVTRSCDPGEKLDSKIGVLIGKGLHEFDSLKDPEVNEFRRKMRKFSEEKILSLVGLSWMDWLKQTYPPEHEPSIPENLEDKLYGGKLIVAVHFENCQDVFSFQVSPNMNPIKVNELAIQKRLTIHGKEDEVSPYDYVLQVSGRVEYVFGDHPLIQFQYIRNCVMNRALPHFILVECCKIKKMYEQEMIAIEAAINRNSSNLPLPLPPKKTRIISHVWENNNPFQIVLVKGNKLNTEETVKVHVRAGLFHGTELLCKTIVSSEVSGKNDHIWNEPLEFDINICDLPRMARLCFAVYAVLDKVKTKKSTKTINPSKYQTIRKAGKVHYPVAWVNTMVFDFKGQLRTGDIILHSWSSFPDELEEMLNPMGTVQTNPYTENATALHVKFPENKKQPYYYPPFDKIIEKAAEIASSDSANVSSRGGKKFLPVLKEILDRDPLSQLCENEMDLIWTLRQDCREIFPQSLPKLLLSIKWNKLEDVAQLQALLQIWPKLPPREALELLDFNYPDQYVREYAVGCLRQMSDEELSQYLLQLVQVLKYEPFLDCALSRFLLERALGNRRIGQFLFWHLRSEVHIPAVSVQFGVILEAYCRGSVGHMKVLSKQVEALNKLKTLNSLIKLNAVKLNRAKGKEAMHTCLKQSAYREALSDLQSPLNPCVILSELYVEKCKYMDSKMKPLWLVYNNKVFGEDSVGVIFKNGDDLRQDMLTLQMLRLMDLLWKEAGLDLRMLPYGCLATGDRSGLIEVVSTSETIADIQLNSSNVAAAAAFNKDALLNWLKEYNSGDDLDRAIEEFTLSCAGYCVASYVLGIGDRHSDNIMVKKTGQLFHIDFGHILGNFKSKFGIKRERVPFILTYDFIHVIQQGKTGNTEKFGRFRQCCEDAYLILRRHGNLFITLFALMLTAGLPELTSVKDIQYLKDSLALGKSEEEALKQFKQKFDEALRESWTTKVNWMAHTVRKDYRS
Data set [2] is described as follows: Aqueous solubility of the compound at pH 7.4. Format: physicochemical.
For data set [3], the target named is T2, Phosphatidylinositol 4,5-bisphosphate 3-kinase catalytic subunit delta isoform (Homo sapiens, UniProt O00329).
T2 sequence (O00329 whole entry): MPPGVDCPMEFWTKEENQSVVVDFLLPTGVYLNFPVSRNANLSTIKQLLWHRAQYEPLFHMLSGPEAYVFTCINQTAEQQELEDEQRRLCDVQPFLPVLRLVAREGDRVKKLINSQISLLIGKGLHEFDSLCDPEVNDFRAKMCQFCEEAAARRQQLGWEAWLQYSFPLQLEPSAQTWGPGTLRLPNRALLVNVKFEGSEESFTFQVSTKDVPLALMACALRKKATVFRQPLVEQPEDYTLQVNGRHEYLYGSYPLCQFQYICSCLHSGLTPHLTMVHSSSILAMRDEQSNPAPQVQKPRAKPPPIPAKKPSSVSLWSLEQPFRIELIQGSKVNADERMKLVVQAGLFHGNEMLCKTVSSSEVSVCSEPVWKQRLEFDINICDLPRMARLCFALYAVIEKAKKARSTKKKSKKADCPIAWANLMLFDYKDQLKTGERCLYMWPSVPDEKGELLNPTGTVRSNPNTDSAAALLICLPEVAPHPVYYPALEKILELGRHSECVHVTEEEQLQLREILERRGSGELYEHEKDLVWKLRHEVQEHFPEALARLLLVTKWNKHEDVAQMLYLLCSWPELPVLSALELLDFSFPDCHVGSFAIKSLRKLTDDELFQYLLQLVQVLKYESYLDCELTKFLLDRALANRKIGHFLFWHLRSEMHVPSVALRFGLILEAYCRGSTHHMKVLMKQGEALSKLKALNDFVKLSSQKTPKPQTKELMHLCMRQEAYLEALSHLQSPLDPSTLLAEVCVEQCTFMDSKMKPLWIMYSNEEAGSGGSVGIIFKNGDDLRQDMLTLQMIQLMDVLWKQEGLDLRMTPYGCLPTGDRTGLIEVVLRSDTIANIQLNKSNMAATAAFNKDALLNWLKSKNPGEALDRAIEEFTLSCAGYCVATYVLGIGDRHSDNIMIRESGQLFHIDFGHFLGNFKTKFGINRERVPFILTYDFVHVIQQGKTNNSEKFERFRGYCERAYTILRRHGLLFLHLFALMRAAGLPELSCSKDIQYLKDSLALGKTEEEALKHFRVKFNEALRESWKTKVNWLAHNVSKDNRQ
As to the kind of experiment: Inhibition of PI3Kdelta (unknown origin).

Data set [4] can be described thus: Oral bioavailability in rat. The format is ADME, organism-based. Particulars: in vivo.
Data set [5] deals with T1, Phosphatidylinositol 4,5-bisphosphate 3-kinase catalytic subunit beta isoform. As to the kind of experiment: Inhibition of PI3Kbeta (unknown origin).
Data set [6] concerns the target Phosphatidylinositol 4,5-bisphosphate 3-kinase catalytic subunit alpha isoform (Homo sapiens, UniProt P42336). As to the kind of experiment: Inhibition of PI3Kalpha (unknown origin).
The target in data set [7] is Phosphatidylinositol 4,5-bisphosphate 3-kinase catalytic subunit gamma isoform (Homo sapiens, UniProt P48736). As to the kind of experiment: Inhibition of PI3Kgamma (unknown origin).
Sequence of Phosphatidylinositol 4,5-bisphosphate 3-kinase catalytic subunit gamma isoform (P48736 whole entry, canonical isoform): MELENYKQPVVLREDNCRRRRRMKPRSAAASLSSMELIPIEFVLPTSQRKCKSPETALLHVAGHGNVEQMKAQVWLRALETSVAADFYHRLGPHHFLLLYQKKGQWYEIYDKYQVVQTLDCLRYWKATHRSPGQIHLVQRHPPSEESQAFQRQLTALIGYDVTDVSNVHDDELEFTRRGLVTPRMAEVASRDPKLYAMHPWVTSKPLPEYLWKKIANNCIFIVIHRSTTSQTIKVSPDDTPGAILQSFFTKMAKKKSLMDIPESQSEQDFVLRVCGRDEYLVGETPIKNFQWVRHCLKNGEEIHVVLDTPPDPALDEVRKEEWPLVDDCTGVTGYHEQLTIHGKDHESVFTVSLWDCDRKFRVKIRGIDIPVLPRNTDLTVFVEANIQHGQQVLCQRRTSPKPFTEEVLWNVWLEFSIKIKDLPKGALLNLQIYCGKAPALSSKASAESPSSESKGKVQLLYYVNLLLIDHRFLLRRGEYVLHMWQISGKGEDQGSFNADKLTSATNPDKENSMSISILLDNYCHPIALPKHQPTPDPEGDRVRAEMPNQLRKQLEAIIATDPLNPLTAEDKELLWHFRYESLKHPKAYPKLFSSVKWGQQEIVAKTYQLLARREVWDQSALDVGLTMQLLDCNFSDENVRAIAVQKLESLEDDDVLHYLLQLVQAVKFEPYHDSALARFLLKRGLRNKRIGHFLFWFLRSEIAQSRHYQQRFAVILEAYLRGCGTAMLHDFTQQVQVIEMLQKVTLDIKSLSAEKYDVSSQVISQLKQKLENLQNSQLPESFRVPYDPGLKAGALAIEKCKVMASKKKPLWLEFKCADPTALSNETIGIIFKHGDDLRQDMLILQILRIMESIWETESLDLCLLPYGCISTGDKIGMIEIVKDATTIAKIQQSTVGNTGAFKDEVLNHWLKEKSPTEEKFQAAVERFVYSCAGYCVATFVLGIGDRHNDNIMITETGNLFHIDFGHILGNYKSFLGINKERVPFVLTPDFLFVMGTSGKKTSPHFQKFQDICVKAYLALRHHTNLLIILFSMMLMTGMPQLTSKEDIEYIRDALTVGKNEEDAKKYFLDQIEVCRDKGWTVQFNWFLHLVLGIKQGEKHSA
Data set [8] is described as follows: Inhibition of PI3K in human lung parenchyma cells assessed as reduction in IL2 secretion.
Data set [9] is described as follows: Inhibition of PI3K in human PBMC assessed as reduction in IFNgamma secretion.
The species entered for the next data set is Rattus norvegicus. As to the kind of experiment: Antiinflammatory activity in Brown Norway rat acute OVA model of Th2 driven lung inflammation assessed as protection against eosinophil recruitment. Format: functional.
Data set [10] is described as follows: Inhibition of PI3K in human lung parenchyma cells assessed as reduction in IFNgamma secretion.

In brackets after ≈: the same amount, converted by molar mass. Bounds are passed on as bounds.

Sequence of Phosphatidylinositol 4,5-bisphosphate 3-kinase catalytic subunit alpha isoform (P42336 whole entry, canonical isoform): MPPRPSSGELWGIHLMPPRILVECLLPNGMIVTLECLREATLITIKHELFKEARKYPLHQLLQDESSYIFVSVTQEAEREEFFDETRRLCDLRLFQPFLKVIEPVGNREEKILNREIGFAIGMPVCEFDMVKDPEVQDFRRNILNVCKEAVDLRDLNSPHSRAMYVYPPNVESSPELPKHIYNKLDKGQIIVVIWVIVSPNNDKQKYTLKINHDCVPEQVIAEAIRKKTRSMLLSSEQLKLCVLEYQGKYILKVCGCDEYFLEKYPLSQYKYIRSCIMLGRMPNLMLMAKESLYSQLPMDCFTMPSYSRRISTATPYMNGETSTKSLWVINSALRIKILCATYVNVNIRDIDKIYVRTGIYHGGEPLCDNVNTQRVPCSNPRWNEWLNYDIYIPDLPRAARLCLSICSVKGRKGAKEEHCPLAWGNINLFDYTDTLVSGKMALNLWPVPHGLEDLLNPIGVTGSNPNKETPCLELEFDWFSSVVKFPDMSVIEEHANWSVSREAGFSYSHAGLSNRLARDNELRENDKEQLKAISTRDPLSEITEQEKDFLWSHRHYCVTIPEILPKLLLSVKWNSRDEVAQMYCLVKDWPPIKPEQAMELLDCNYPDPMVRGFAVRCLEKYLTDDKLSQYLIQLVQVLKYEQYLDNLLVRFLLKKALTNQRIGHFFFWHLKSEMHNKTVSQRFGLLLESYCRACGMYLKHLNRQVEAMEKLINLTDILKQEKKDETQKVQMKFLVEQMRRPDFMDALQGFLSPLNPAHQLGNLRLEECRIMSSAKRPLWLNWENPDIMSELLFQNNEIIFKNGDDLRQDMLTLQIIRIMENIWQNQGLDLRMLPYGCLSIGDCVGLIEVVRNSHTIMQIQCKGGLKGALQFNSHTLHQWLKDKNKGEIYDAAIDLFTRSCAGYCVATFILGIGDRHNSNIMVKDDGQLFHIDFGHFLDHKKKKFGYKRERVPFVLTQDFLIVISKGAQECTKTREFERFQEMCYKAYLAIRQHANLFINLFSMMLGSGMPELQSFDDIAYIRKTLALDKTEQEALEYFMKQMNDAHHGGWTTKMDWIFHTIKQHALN

The term IC50 denotes the concentration that inhibits the measured activity by half. Regarding `O=C(NC1=Nc2ccccc2C2=NCCN12)c1cccnc1`, the IC50 in [1] was determined as 1 nM.

Broadly, the solubility is the dissolved amount per volume that the medium holds. Read a high solubility as a readily soluble substance. In data set [2], `Cc1nnc2n1[C@@H]1CCN(Cc3cc4nc(-c5cccc6[nH]ccc56)nc(N5CCOCC5)c4s3)C[C@@H]1CC2` displayed a solubility of 20 µg/mL (≈ 37 µM). The IC50 in data set [3] was 0.794 nM.

The term bioavailability denotes the share of a dose that reaches the circulation, judged against a reference dose that is usually intravenous. Lower therefore signals poor availability. Consider `CC(C)N1CCN(Cc2cnc(-c3cc(-c4cccc5[nH]ccc45)cc4[nH]ncc34)o2)CC1` [NEMIRALISIB], for which, in data set [4], the bioavailability was below 2%.

As to `Cc1nc(C(=O)Nc2cc(-c3cnc(Cl)c(NS(=O)(=O)c4ccccc4)c3)cc3[nH]ncc23)cs1`, the IC50 in data set [3] was 2 nM; in data set [5] it was 1000 nM; in [6], 316 nM; in [7], 50.1 nM.

One may read the pKi as the Ki on a negative log10 scale, so that one unit is a factor of ten. As usually defined, the ED50 is the dose at which the effect has come halfway, by size or by number of responders. Broadly, the Ki is a measure of affinity in units of concentration, obtained from inhibition or displacement. A higher Ki goes with a looser hold on the target. Turning to `COc1ncc(-c2cc(-c3ncc(CN4C[C@@H](C)O[C@@H](C)C4)o3)c3cn[nH]c3c2)cc1NS(C)(=O)=O`, the IC50 in [8] is 3.16 nM; in [10], 2 nM. In data set [9], the pKi was 9.2. The ED50 in the data set listed under Rattus norvegicus stood at 0.035 mg/kg. The inhibition constant (Ki) in [5] was 631 nM; in data set [6], 501 nM; in [7] it was 501 nM.
